Measurements: ChEMBL document CHEMBL2069166, “β-Lactones Inhibit N-acylethanolamine Acid Amidase by S-Acylation of the Catalytic N-Terminal Cysteine” (ACS Med Chem Lett, 2012)
The source made the active and inactive calls. The calls are words filed in the database; no cut-off is given here.

Assays:
[1] = molecular target: T1, N-acylethanolamine-hydrolyzing acid amidase (Homo sapiens, UniProt Q02083); assay: Inhibition of human recombinant His6-tagged NAAA expressed in HEK293 cells using 10-cis-heptadecenoylethanolamide as substrate after 30 mins by UPLC/MS analysis
T1 sequence (Q02083 whole entry): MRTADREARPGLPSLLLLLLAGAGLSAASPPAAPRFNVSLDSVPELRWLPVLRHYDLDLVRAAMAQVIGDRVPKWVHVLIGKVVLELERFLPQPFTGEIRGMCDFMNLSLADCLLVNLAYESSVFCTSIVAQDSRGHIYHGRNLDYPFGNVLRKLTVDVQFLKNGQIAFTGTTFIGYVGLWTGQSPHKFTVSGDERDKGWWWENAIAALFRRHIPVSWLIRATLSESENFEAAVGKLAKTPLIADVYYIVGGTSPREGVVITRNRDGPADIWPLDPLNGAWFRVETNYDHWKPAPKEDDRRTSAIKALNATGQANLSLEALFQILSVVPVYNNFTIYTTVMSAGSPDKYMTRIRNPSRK

[2] = molecular target: T2, N-acylethanolamine-hydrolyzing acid amidase (Homo sapiens) (UniProt Q02083); assay: Binding affinity to human recombinant His6-tagged NAAA expressed in HEK293 cells assessed as formation of peptide adduct by MS/MS […] analysis; assay type: cell-based
T2 sequence (whole entry): T1 sequence (Q02083 whole entry)

[3] = molecular target: T2, N-acylethanolamine-hydrolyzing acid amidase (Homo sapiens); details: HEK293, 10 to 30 nM
[4] = molecular target: T2, N-acylethanolamine-hydrolyzing acid amidase (Homo sapiens); details: HEK293, 100 nM
[5] = molecular target: T3, Acid ceramidase (Homo sapiens) (UniProt Q13510); assay: Inhibition of human acid ceramidase expressed in HEK293 cells up to 30 uM using N-lauroyl- ceramide substrate by UPLC/MS analysis; assay type: cell-based
T3 sequence (whole entry): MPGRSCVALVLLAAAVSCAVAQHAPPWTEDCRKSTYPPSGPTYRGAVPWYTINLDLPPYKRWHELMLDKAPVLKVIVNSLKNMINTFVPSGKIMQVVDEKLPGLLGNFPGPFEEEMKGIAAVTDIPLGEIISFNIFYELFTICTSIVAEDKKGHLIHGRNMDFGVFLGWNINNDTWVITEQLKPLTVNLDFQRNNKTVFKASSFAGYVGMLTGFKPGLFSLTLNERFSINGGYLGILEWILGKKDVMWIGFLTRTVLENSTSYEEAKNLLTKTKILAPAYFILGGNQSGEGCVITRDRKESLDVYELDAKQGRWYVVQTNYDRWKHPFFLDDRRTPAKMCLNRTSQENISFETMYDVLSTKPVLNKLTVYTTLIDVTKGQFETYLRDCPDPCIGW

[6] = molecular target: T4, Fatty-acid amide hydrolase 1 (Rattus norvegicus) (UniProt P97612); assay: Inhibition of FAAH in rat brain homogenate using [3H]anandamide as substrate up to 30 uM after 30 mins by liquid scintillation counting; assay type: tissue-based
T4 sequence (whole entry): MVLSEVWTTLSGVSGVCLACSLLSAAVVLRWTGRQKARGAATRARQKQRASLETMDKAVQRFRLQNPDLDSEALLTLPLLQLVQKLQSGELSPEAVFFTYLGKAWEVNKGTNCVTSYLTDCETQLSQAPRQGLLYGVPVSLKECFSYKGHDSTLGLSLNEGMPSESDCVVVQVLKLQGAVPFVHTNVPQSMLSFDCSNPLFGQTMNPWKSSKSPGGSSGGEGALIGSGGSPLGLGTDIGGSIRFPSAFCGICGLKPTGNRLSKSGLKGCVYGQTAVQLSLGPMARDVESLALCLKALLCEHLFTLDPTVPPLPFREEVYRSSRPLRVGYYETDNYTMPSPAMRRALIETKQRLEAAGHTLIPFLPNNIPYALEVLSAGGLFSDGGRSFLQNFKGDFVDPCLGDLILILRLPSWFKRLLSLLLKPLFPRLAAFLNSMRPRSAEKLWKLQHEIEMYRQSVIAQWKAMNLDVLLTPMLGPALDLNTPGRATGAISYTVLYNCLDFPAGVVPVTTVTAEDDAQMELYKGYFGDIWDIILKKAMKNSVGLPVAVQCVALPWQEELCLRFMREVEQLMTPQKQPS

Row | SMILES | IC50 [1] [nM] | Activity [2] | inhibition [3] | inhibition [4] | inhibition [5] | inhibition [6]
1 | C[C@@H]1OC(=O)[C@@H]1NC(=O)CCCCCCc1ccccc1 | 314 | Active |  |  |  | 
2 | C[C@@H]1OC(=O)[C@@H]1NC(=O)OCCCCCc1ccccc1 | 7.3 |  | Active | Active | inactive | inactive
